Experiments:
BRD4 (BD1, 2) = BRD4 (BD1, 2) (Homo sapiens, UniProt O60885); test: BROMOscan competitive ligand binding assay, BRD4 (BD1, 2)
[1] = molecular target: T1, full-length recombinant human BRD4 (Homo sapiens, UniProt O60885); test: AlphaScreen assay, full-length BRD4 with acetylated histone H4 peptide; assay type: binding; conditions: full-length BRD4, acetylated H4 peptide (1-21) ligand
T1 construct: His-tag (N); purchased Reaction Biology RD-21-153; host or cells: Sf9 insect cells
Description: AlphaScreen® assay, an […], was conducted by following manufacturer's protocol (PerkinElmer, Waltham, MA) at Reaction Biology (Malvern, PA) utilizing full-length recombinant human BRD4 corresponding to amino acid position 2-1362 (NCBI Reference Sequence: NM_058243) expressed in Sf9 insect cells with an N-terminal His-tag (Reaction Biology Catalog No. RD-21-153), and histone H4 peptide (1-21) containing acetylated lysine residues at positions 5, 8, 12 and 16 as the ligand. […] H4 ligand peptide was then added and the mixture was incubated for another 30 minutes at room temperature. Streptavidin-coated donor beads and Ni acceptor beads were then added, and the mixture was incubated for additional 60 minutes. Fluorescent measurements (Ex/Em=680/520-620 nm) were taken and the data were fitted to the Hill equation with variable slopes to obtain IC50 values.

MV4-11 cells = test: MV4-11 cytotoxicity assay (CellTiter-Glo); assay type: cell-based; conditions: Homo sapiens, 72 hr incubation
Description: Cell lines: The MV4-11 cell line were obtained from American Type Culture Collection (ATCC, Manassas, VA, USA) and cultured in RPMI 1640 (Invitrogen 11879020) culture medium supplemented with 10% fetal bovine serum and 100 units/mL Penicillin, 100 μg/mL Streptomycin and maintained in a 37° C., 5% CO2/95% humidified air incubator.
Cytotoxicity Assay: MV4-11 cells were cultured as described above, and plated in 1536-well white solid tissue culture plates using a Multidrop Combi peristaltic dispenser (ThermoFisher, Waltham, MA) at a density of 500 cells/well in 5 μL of RPMI 1640 (Invitrogen 11879020) culture medium supplemented with 10% fetal bovine serum and 100 units/mL Penicillin, 100 μg/mL Streptomycin. A 1536-well pintool dispenser outfitted with 20 nL pins (Wako Automation, San Diego, CA) was used to transfer 23 nL of compound in DMSO to the 1536-well assay plates. After 72 hr incubation at 37° C., 2.5 μL of CellTiter-Glo (Promega) was dispensed into each well using a BioRAPTR FRD dispenser (Beckman Coulter, Brea, CA). Plates were incubated at room temperature for 10 minutes, transferred to a ViewLux microplate imager (Perkin Elmer, Waltham, MA) and the ATP-coupled luminescence was measured using a 1 second exposure.

[2] = test system: acute myeloid leukemia cell line Kasumi-1; test: Kasumi-1 cell viability assay (CellTiter-Blue); assay type: cell-based; conditions: Homo sapiens, Kasumi 1; approximately 72 hours exposure, CellTiter-Blue; read-out: Kasumi-1 IC50
Description: Cell viability assay: Cell viability assay was conducted to obtain G150, the compound concentration resulting in 50% growth inhibition, using an acute myeloid leukemia cell line Kasumi-1 (ATCC® CRL-2724™) (ATCC, Manassas, VA). Briefly, cells were seeded on a 96-well flat-bottom cell culture plate at the density of 30,000 cells per well (MV-4-11) or 10,000 cells per well (Kasumi-1) in RPMI supplemented with 10% fetal bovine serum and L-glutamine plus penicillin and streptomycin. Cells were maintained at 37° C. with 5% CO2 for 24 hours then exposed to a given compound at either 11 or 21 concentrations ranging from 0 μM to 20 μM in a 150 μL volume in the presence of 0.2% dimethyl sulfoxide, the solvent used in serial dilution of the compound. The exposure was maintained for approximately 72 hours and the cell viability was measured using CellTiter-Blue® (Promega, Madison, WI) according to manufacturer's instruction. GI50 values were calculated using a four-parameter dose-response model in Graph Pad Prism (La Jolla, CA).

CBP = CBP (Homo sapiens, UniProt Q92793); test: BROMOscan competitive ligand binding assay, CBP
CBP, sequence (Q92793 1085-1192 limits assumed): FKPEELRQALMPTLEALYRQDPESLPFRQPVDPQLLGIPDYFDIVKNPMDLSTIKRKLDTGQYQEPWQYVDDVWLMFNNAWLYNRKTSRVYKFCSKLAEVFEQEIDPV

P300 = molecular target: T2, P300 (Homo sapiens, UniProt Q09472); test: BROMOscan competitive ligand binding assay, P300
T2 sequence (Q09472 1049-1156 limits assumed): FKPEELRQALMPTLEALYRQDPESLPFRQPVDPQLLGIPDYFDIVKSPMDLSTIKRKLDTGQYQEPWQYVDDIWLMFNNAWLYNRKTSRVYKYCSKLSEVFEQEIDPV

BRD2 (BD1) = BRD2 (BD1) (Homo sapiens, UniProt P25440); test: BROMOscan competitive ligand binding assay, BRD2 (BD1)
BRD2 (BD1), sequence (P25440 74-180 limits assumed): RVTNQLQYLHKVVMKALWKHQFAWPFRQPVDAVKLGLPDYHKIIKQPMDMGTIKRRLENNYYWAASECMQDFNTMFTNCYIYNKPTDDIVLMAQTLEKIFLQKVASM

BRD2 (BD1, 2) = BRD2 (BD1, 2) (Homo sapiens, UniProt P25440); test: BROMOscan competitive ligand binding assay, BRD2 (BD1, 2)
BRD2 (BD1, 2), sequence (P25440 71-455 limits assumed): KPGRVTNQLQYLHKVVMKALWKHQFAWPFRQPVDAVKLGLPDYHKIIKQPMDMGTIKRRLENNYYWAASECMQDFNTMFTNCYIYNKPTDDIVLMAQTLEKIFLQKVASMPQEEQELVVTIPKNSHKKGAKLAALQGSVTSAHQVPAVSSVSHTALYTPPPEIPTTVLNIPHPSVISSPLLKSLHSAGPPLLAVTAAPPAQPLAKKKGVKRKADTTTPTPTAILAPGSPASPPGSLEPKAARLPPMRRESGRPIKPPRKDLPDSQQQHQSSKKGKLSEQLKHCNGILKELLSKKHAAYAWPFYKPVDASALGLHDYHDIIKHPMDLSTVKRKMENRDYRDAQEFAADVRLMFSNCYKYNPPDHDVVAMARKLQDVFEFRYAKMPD

BRD2 (BD2) = BRD2 (BD2) (Homo sapiens, UniProt P25440); test: BROMOscan competitive ligand binding assay, BRD2 (BD2)
BRD2 (BD2), sequence (P25440 344-453 limits assumed): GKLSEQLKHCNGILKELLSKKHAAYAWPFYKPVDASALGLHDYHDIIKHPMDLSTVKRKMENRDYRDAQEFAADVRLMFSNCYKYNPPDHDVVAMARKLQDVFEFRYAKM

BRD3 (BD1) = BRD3 (BD1) (Homo sapiens, UniProt Q15059); test: BROMOscan competitive ligand binding assay, BRD3 (BD1)
BRD3 (BD1), sequence (Q15059 34-140 limits assumed): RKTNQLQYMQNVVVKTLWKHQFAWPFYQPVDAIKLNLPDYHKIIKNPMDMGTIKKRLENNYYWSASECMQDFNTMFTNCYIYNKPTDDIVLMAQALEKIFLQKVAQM

BRD3 (BD1, 2) = BRD3 (BD1, 2) (Homo sapiens, UniProt Q15059); test: BROMOscan competitive ligand binding assay, BRD3 (BD1, 2)
BRD3 (BD1, 2), sequence (Q15059 24-416 limits assumed): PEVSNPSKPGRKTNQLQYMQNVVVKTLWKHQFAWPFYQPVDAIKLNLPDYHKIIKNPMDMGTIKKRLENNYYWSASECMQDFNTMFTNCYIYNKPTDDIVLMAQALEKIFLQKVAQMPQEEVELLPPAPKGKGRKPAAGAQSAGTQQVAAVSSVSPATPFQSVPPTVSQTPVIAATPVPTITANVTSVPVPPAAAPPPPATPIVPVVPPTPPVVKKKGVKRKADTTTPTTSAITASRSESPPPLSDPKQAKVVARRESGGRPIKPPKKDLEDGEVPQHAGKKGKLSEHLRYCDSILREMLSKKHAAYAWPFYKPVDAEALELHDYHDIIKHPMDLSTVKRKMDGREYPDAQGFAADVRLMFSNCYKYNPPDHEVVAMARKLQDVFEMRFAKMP

BRD3 (BD2) = BRD3 (BD2) (Homo sapiens, UniProt Q15059); test: BROMOscan competitive ligand binding assay, BRD3 (BD2)
BRD3 (BD2), sequence (Q15059 306-415 limits assumed): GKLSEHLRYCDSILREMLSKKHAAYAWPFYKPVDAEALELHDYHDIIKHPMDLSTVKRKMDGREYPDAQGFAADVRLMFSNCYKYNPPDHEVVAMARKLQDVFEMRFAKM

BRD4 (BD1) = BRD4 (BD1) (Homo sapiens, UniProt O60885); test: BROMOscan competitive ligand binding assay, BRD4 (BD1)
BRD4 (BD2) = BRD4 (BD2) (Homo sapiens, UniProt O60885); test: BROMOscan competitive ligand binding assay, BRD4 (BD2)
BRDT (BD1) = BRDT (BD1) (Homo sapiens, UniProt Q58F21); test: BROMOscan competitive ligand binding assay, BRDT (BD1)
BRDT (BD1, 2) = BRDT (BD1, 2) (Homo sapiens, UniProt Q58F21); test: BROMOscan competitive ligand binding assay, BRDT (BD1, 2)
BRDT (BD2) = BRDT (BD2) (Homo sapiens, UniProt Q58F21); test: BROMOscan competitive ligand binding assay, BRDT (BD2)

Cn1cc(-c2ccc3nc(-c4cnn(CC(C)(C)O)c4)nc(N4CCOC[C@@H]4c4ccccc4)c3c2)c2cc[nH]c2c1=O [Cpd. 2, (S)-4-(2-(1-(2-hydroxy-2-methylpropyl)-1H-pyrazol-4-yl)-4-(3-phenylmorpholino)quinazolin-6-yl)-6-methyl-1,6-dihydro-7H-pyrrolo[2,3-c]pyridin-7-one]
< 100 nM: Kd (BRD4 (BD1, 2); Table 3) | Kd (BRD4 (BD1, 2); tandem bromodomains) | IC50 [1] | IC50 (MV4-11 cells) | IC50 [2] | Kd (CBP) | Kd (P300) | Kd (BRD2 (BD1)) | Kd (BRD2 (BD1, 2)) | Kd (BRD2 (BD2)) | Kd (BRD3 (BD1)) | Kd (BRD3 (BD1, 2)) | Kd (BRD3 (BD2)) | Kd (BRD4 (BD1)) | Kd (BRD4 (BD2)) | Kd (BRDT (BD1)) | Kd (BRDT (BD1, 2)) | Kd (BRDT (BD2))
